Measurements taken from patent US20210267944A1 (BioXcel Therapeutics, Inc., priority 2018, published 2021).
Counter-ions that a name gives are not always drawn. Like-named read-outs stand apart in the source and are kept apart here.

Settings: opioid withdrawal patients
From the text: The participants were continuously monitored by the site personnel, including blood pressure and heart rate, from the start of the infusion through resolution of sedation and/or any adverse effects on blood pressure or heart rate. An electrocardiogram was obtained at screening, pre-infusion and upon resolution of sedation, a predetermined reduction in COWS or return to baseline.

Cc1cccc([C@H](C)c2cnc[nH]2)c1C [dexmedetomidine hydrochloride]
Diastolic blood pressure Max (Day-1, 00:00 Hr): 110 mm of Hg | Diastolic blood pressure Mean ± SD (Day-1, 00:00 Hr): 83.81 ± 12.99 mm of Hg | Diastolic blood pressure Median (Day-1, 00:00 Hr): 82 mm of Hg | Diastolic blood pressure Min (Day-1, 00:00 Hr): 64 mm of Hg | Heart rate Max (Day-1, 00:00 Hr): 106 beats/minutes | Heart rate Mean ± SD (Day-1, 00:00 Hr): 69.9 ± 16.37 beats/minutes | Heart rate Median (Day-1, 00:00 Hr): 66 beats/minutes | Heart rate Min (Day-1, 00:00 Hr): 55 beats/minutes | Diastolic blood pressure Max (Day-1, 00:15 Hr): 96 mm of Hg | Diastolic blood pressure Mean ± SD (Day-1, 00:15 Hr): 78.09 ± 9.99 mm of Hg | Diastolic blood pressure Median (Day-1, 00:15 Hr): 76 mm of Hg | Diastolic blood pressure Min (Day-1, 00:15 Hr): 62 mm of Hg | Heart rate Max (Day-1, 00:15 Hr): 86 beats/minutes | Heart rate Mean ± SD (Day-1, 00:15 Hr): 66.36 ± 11.9 beats/minutes | Heart rate Median (Day-1, 00:15 Hr): 67 beats/minutes | Heart rate Min (Day-1, 00:15 Hr): 49 beats/minutes | Diastolic blood pressure Max (Day-1, 00:30 Hr): 86 mm of Hg | Diastolic blood pressure Mean ± SD (Day-1, 00:30 Hr): 70 ± 8.8 mm of Hg | Diastolic blood pressure Median (Day-1, 00:30 Hr): 68 mm of Hg | Diastolic blood pressure Min (Day-1, 00:30 Hr): 59 mm of Hg | Heart rate Max (Day-1, 00:30 Hr): 84 beats/minutes | Heart rate Mean ± SD (Day-1, 00:30 Hr): 66.88 ± 12.26 beats/minutes | Heart rate Median (Day-1, 00:30 Hr): 70 beats/minutes | Heart rate Min (Day-1, 00:30 Hr): 52 beats/minutes | Diastolic blood pressure Max (Day-1, 00:45 Hr): 86 mm of Hg | Diastolic blood pressure Mean ± SD (Day-1, 00:45 Hr): 74.5 ± 7.67 mm of Hg | Diastolic blood pressure Median (Day-1, 00:45 Hr): 76 mm of Hg | Diastolic blood pressure Min (Day-1, 00:45 Hr): 61 mm of Hg | Heart rate Max (Day-1, 00:45 Hr): 89 beats/minutes | Heart rate Mean ± SD (Day-1, 00:45 Hr): 68.83 ± 14.91 beats/minutes | Heart rate Median (Day-1, 00:45 Hr): 66 beats/minutes | Heart rate Min (Day-1, 00:45 Hr): 50 beats/minutes | Diastolic blood pressure Max (Day-1, 01:00 Hr): 77 mm of Hg | Diastolic blood pressure Mean ± SD (Day-1, 01:00 Hr): 71.4 ± 6.05 mm of Hg | Diastolic blood pressure Median (Day-1, 01:00 Hr): 72 mm of Hg | Diastolic blood pressure Min (Day-1, 01:00 Hr): 60 mm of Hg | Heart rate Max (Day-1, 01:00 Hr): 85 beats/minutes | Heart rate Mean ± SD (Day-1, 01:00 Hr): 69.6 ± 11.35 beats/minutes | Heart rate Median (Day-1, 01:00 Hr): 66 beats/minutes | Heart rate Min (Day-1, 01:00 Hr): 54 beats/minutes | Diastolic blood pressure Max (Day-1, 01:15 Hr): 82 mm of Hg | Diastolic blood pressure Mean ± SD (Day-1, 01:15 Hr): 72 ± 8.16 mm of Hg | Diastolic blood pressure Median (Day-1, 01:15 Hr): 72 mm of Hg | Diastolic blood pressure Min (Day-1, 01:15 Hr): 62 mm of Hg | Heart rate Max (Day-1, 01:15 Hr): 76 beats/minutes | Heart rate Mean ± SD (Day-1, 01:15 Hr): 72 ± 2.82 beats/minutes | Heart rate Median (Day-1, 01:15 Hr): 70 beats/minutes | Heart rate Min (Day-1, 01:15 Hr): 70 beats/minutes | Diastolic blood pressure Max (Day-1, 01:30 Hr): 66 mm of Hg | Diastolic blood pressure Mean ± SD (Day-1, 01:30 Hr): 61 ± 5 mm of Hg | Diastolic blood pressure Median (Day-1, 01:30 Hr): 61 mm of Hg | Diastolic blood pressure Min (Day-1, 01:30 Hr): 56 mm of Hg | Heart rate Max (Day-1, 01:30 Hr): 61 beats/minutes | Heart rate Mean ± SD (Day-1, 01:30 Hr): 60.5 ± 0.5 beats/minutes | Heart rate Median (Day-1, 01:30 Hr): 60.5 beats/minutes | Heart rate Min (Day-1, 01:30 Hr): 60 beats/minutes | Diastolic blood pressure Max (Day-1, 30 min. post Infusion): 86 mm of Hg | Diastolic blood pressure Mean ± SD (Day-1, 30 min. post Infusion): 75.27 ± 9.22 mm of Hg | Diastolic blood pressure Median (Day-1, 30 min. post Infusion): 73 mm of Hg | Diastolic blood pressure Min (Day-1, 30 min. post Infusion): 60 mm of Hg | Heart rate Max (Day-1, 30 min. post Infusion): 99 beats/minutes | Heart rate Mean ± SD (Day-1, 30 min. post Infusion): 65.18 ± 14.03 beats/minutes | Heart rate Median (Day-1, 30 min. post Infusion): 62 beats/minutes | Heart rate Min (Day-1, 30 min. post Infusion): 50 beats/minutes | Diastolic blood pressure Max (Day-1, Screening): 108 mm of Hg | Diastolic blood pressure Mean ± SD (Day-1, Screening): 84.18 ± 13.13 mm of Hg | Diastolic blood pressure Median (Day-1, Screening): 81 mm of Hg | Diastolic blood pressure Min (Day-1, Screening): 63 mm of Hg | Heart rate Max (Day-1, Screening): 108 beats/minutes | Heart rate Mean ± SD (Day-1, Screening): 68.54 ± 15.32 beats/minutes | Heart rate Median (Day-1, Screening): 66 beats/minutes | Heart rate Min (Day-1, Screening): 55 beats/minutes | Diastolic blood pressure Max (Day-2, 00:00 Hr): 88 mm of Hg | Diastolic blood pressure Mean ± SD (Day-2, 00:00 Hr): 78.4 ± 7.86 mm of Hg | Diastolic blood pressure Median (Day-2, 00:00 Hr): 79 mm of Hg | Diastolic blood pressure Min (Day-2, 00:00 Hr): 69 mm of Hg | Heart rate Max (Day-2, 00:00 Hr): 94 beats/minutes | Heart rate Mean ± SD (Day-2, 00:00 Hr): 68.8 ± 13.94 beats/minutes | Heart rate Median (Day-2, 00:00 Hr): 63 beats/minutes | Heart rate Min (Day-2, 00:00 Hr): 55 beats/minutes | Diastolic blood pressure Max (Day-2, 00:15 Hr): 90 mm of Hg | Diastolic blood pressure Mean ± SD (Day-2, 00:15 Hr): 77.4 ± 9.91 mm of Hg | Diastolic blood pressure Median (Day-2, 00:15 Hr): 76 mm of Hg | Diastolic blood pressure Min (Day-2, 00:15 Hr): 62 mm of Hg | Heart rate Max (Day-2, 00:15 Hr): 85 beats/minutes | Heart rate Mean ± SD (Day-2, 00:15 Hr): 67.4 ± 12.35 beats/minutes | Heart rate Median (Day-2, 00:15 Hr): 61 beats/minutes | Heart rate Min (Day-2, 00:15 Hr): 53 beats/minutes | Diastolic blood pressure Max (Day-2, 00:30 Hr): 84 mm of Hg | Diastolic blood pressure Mean ± SD (Day-2, 00:30 Hr): 73.4 ± 8.54 mm of Hg | Diastolic blood pressure Median (Day-2, 00:30 Hr): 71 mm of Hg | Diastolic blood pressure Min (Day-2, 00:30 Hr): 61 mm of Hg | Heart rate Max (Day-2, 00:30 Hr): 93 beats/minutes | Heart rate Mean ± SD (Day-2, 00:30 Hr): 68.2 ± 5.54 beats/minutes | Heart rate Median (Day-2, 00:30 Hr): 58 beats/minutes | Heart rate Min (Day-2, 00:30 Hr): 54 beats/minutes | Diastolic blood pressure Max (Day-2, 00:45 Hr): 86 mm of Hg | Diastolic blood pressure Mean ± SD (Day-2, 00:45 Hr): 79 ± 7.68 mm of Hg | Diastolic blood pressure Median (Day-2, 00:45 Hr): 82 mm of Hg | Diastolic blood pressure Min (Day-2, 00:45 Hr): 66 mm of Hg | Heart rate Max (Day-2, 00:45 Hr): 97 beats/minutes | Heart rate Mean ± SD (Day-2, 00:45 Hr): 69 ± 16.80 beats/minutes | Heart rate Median (Day-2, 00:45 Hr): 63 beats/minutes | Heart rate Min (Day-2, 00:45 Hr): 53 beats/minutes | Diastolic blood pressure Max (Day-2, 01:00 Hr): 87 mm of Hg | Diastolic blood pressure Mean ± SD (Day-2, 01:00 Hr): 79.33 ± 7.58 mm of Hg | Diastolic blood pressure Median (Day-2, 01:00 Hr): 82 mm of Hg | Diastolic blood pressure Min (Day-2, 01:00 Hr): 69 mm of Hg | Heart rate Max (Day-2, 01:00 Hr): 94 beats/minutes | Heart rate Mean ± SD (Day-2, 01:00 Hr): 72.66 ± 17.15 beats/minutes | Heart rate Median (Day-2, 01:00 Hr): 72 beats/minutes | Heart rate Min (Day-2, 01:00 Hr): 52 beats/minutes | Diastolic blood pressure Max (Day-2, 01:15 Hr): 101 mm of Hg
